# Tests used:
# MAO-B = tested on: MAO-B; design: method as in PMID 29458138; settings: cited from earlier work
# 5-HT2B receptor = tested on: 5-HT2B receptor; design: method as in PMID 29458138; settings: cited from earlier work
# [1] = tested on: norepinephrine transporter (NET); design: method as in PMID 30904940; settings: cited from earlier work
# 5-HT2B = 5-HT2B (Homo sapiens, UniProt P41595); assay: 5-HT2B calcium influx assay (agonist) in BA/F3 cells; type: cell-based; design: host or cells: BA/F3 cells
# [2] = tested on: liver of DIO C57BL/6 mice; assay: Liver weight, hepatic triglyceride and cholesterol contents, histopathology and Oil Red O staining in DIO mice; type: in vivo; settings: 40 mg/kg/day
# Experimental: (§1) Male C57BL/6 mice were used to establish DIO by feeding them a high-fat diet (HFD; 60% cal/L fat, 20% cal/L protein, and 20% cal/L carbohydrates; Research Diet, D12492) for 18 weeks. After this period, mice were treated with either vehicle (sterile water, N = 8) or MEAI (N = 11) daily for 28 days by gavage at a dose of 40 mg/kg/day. Age-matched control mice (N = 10) on a standard diet (STD; 14% kcal fat, 24% kcal protein, 62% kcal carbohydrates; NIH-31 rodent diet) received vehicle daily. The body weight of all mice was monitored daily, and total body fat and lean mass were determined by EchoMRI-100H (Echo Medical Systems LLC, Houston, Texas, USA). On day 29, at the end of the experimental period, mice were euthanized by a cervical dislocation under anesthesia. The kidneys, brain, liver, and fat pads were removed and weighed, and samples were either snap-frozen or fixed in buffered 4% formalin. Trunk blood was collected to determine the biochemical parameters.
# At the time of animal sacrifice, liver tissue was extracted following the established protocol described previously.[19] The extracted liver tissue was then analyzed for cholesterol and triglyceride contents using a Cobas C-111 chemistry analyzer (Roche, Switzerland).
# Paraffin-embedded liver sections (5 μm) from five animals per group were processed for hematoxylin–eosin staining. Liver images were captured using a Zeiss Axio Scope A1 light microscope (Carl Zeiss AG, Jena, Germany) equipped with a Zeiss AxioCam ICc 5 color camera. Ten random 40× fields of view were taken from each animal to obtain representative images.
# Liver cryosections (8 μm) were stained with Oil Red O (Cat# ab150678; Abcam, Cambridge, UK) following the manufacturer’s protocol. Images were acquired as described above. For quantitative analysis of Oil Red O staining, the area of lipid droplets in the liver cryosections was measured using ImageJ software.
# 5-HT2A = molecular target: T1, 5-HT2A (Homo sapiens, UniProt P28223); assay: Ligand binding assay (Eurofins); settings: read-out: inhibitory activity (% inhibition of the binding of a specific ligand)
# T1 construct: Eurofins (contract screening service)
# Experimental: (§2) MEAI at 10 μM was tested in ligand binding assays at Eurofins Inc., as described previously.[20] Compound binding was calculated as a % inhibition of the binding of a ligand specific for each target. Results showing an inhibition or stimulation higher than 50% are considered to represent significant effects of MEAI. In each experiment, and if applicable, the respective reference compound was tested concurrently with MEAI and the data were compared with historical values determined at Eurofins. The experiment was accepted in accordance with the Eurofins validation Standard Operating Procedure.
# dopamine D2 receptor = molecular target: T2, dopamine D2 receptor (Homo sapiens, UniProt P14416); assay: Ligand binding assay (Eurofins); settings: read-out: inhibitory activity (% inhibition of the binding of a specific ligand)
# T2 construct: Eurofins (contract screening service)
# Experimental: as §2
# 5-HT1A = molecular target: T3, 5-HT1A (Homo sapiens, UniProt P08908); assay: Ligand binding assay (Eurofins); settings: read-out: inhibitory activity (% inhibition of the binding of a specific ligand)
# T3 construct: Eurofins (contract screening service)
# Experimental: as §2
# MAO-A enzyme = molecular target: T4, MAO-A enzyme (Homo sapiens, UniProt P21397); assay: Ligand binding assay (Eurofins); settings: read-out: inhibitory activity (% inhibition of the binding of a specific ligand)
# T4 construct: Eurofins (contract screening service)
# Experimental: as §2
# [3] = tested on: hepatic lipid metabolism genes; assay: Real-time PCR of liver mRNA in DIO mice; type: in vivo; settings: 40 mg/kg/day
# Experimental: as §1
# mRNA from livers was extracted using a Bio-Tri RNA lysis buffer (Bio-Lab, Israel), followed by DNase I treatment (Thermo Scientific, Illinois, USA), and reverse transcribed using the qScript cDNA Synthesis kit (Quantabio, Beverly, Massachusetts, USA). Real-time PCR was performed using an iTaq Universal SYBR Green Supermix (Bio-Rad, California, USA) and the CFX connect ST system (Bio-Rad, California, USA). The full list of primers is available as Table S1.
# Chain of 5-HT2B (P41595 whole entry): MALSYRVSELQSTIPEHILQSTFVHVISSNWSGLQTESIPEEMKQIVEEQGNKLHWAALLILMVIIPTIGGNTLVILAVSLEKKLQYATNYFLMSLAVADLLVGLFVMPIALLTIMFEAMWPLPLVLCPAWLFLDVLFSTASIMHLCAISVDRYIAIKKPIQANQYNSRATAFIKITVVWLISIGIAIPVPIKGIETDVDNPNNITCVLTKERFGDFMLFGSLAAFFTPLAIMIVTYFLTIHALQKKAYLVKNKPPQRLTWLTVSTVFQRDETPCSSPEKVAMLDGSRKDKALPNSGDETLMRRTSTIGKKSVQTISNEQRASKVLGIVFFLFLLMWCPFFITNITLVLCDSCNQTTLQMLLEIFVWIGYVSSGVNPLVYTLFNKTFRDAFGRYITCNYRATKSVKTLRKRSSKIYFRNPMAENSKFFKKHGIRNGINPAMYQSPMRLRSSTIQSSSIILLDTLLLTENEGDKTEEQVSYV
# T1 sequence (P28223 whole entry): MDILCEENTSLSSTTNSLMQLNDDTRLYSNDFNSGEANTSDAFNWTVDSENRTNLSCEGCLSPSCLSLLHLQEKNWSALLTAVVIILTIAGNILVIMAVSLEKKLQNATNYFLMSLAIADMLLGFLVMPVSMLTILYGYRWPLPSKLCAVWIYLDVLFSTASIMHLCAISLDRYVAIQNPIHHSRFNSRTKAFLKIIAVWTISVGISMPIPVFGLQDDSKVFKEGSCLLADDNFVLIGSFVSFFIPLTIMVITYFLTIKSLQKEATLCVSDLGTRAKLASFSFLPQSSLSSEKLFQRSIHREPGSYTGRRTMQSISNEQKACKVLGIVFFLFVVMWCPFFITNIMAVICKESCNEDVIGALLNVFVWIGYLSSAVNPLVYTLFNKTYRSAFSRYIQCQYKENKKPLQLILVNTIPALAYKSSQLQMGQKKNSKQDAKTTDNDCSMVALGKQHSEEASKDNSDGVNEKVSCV
# T4 sequence (P21397 whole entry, species assumed): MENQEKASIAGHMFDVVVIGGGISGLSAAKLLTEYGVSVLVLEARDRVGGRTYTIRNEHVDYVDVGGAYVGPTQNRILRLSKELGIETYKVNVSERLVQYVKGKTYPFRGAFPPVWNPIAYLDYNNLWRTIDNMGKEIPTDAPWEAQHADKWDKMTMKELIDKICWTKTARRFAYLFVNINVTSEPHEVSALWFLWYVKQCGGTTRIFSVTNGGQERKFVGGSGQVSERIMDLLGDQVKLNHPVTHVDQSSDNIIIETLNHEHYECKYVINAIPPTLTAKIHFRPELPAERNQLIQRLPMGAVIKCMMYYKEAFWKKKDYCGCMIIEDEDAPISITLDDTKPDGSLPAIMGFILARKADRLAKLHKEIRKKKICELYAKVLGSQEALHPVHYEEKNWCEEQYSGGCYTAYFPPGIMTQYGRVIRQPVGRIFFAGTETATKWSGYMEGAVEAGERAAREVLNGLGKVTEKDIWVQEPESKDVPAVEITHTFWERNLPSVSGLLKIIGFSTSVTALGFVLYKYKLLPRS
# T3 sequence (P08908 whole entry, species assumed): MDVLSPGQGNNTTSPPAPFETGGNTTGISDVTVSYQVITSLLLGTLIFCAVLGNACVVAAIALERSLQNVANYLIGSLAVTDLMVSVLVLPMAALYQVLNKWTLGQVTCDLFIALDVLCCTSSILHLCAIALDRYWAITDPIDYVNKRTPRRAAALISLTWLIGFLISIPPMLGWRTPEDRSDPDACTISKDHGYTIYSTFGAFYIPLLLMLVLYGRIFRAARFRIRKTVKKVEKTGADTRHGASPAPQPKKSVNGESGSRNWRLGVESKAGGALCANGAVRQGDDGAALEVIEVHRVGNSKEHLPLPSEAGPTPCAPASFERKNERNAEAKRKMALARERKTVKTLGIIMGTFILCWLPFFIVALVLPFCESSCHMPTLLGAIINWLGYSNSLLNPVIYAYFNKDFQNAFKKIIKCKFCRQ
# T2 sequence (P14416 whole entry, species assumed): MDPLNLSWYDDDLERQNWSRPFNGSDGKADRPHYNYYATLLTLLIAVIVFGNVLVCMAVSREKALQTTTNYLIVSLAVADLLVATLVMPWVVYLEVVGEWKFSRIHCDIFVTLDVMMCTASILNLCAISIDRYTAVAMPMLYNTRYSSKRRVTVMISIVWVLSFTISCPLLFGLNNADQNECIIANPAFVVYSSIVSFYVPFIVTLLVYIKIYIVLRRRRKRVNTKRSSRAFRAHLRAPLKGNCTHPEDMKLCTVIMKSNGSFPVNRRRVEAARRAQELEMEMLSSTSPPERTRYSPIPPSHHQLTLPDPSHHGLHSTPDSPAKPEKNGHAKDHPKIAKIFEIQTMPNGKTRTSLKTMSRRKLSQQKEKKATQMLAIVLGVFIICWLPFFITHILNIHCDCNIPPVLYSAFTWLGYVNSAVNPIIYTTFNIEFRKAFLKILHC
smiles,measurement,setting,value
"COc1ccc2c(c1)CC(N)C2.Cl (stereo not shown) [MEAI, 2,3-Dihydro-5-methoxy-1H-inden-2-amine hydrochloride]",binding inhibition,MAO-B,unaffected
same,binding inhibition,5-HT2B receptor,modest binding inhibition
same,interaction with transporter,[1],interacts
same,Emax,"5-HT2B; BaF3, read-out: maximum response, calcium flux (percent of control response to serotonin at 0.25 μM), cytosolic Ca2+ mobilization, agonist mode",18.6%
same,agonist activity at the 5-HT2B receptor,5-HT2B; calcium flux,did not act as an agonist
same,Oil Red O staining of liver,"[2]; DIO mice, vs HFD vehicle",decrease
same,hepatic cholesterol levels,"[2]; DIO mice, vs HFD vehicle",trend toward a reduction
same,lipid vacuole numbers in liver,"[2]; DIO mice, vs HFD vehicle",reduced
same,liver triglycerides,"[2]; DIO mice, vs HFD vehicle",significant reductions
same,liver weight,"[2]; HFD-fed mice, 28 days",reduced
same,liver weight to body weight ratio,"[2]; HFD-fed mice, 28 days",normalized
same,inhibition at 10 µM,5-HT2A,> 50%
same,inhibition at 10 µM,dopamine D2 receptor,> 50%
same,inhibition at 10 µM,5-HT1A,> 50%
same,inhibition at 10 µM,MAO-A enzyme,> 50%
same,7-dehydrocholesterol reductase (Dhcr) expression,[3],no significant changes
same,Acaca mRNA expression,[3],significantly decreased
same,Crebp expression,[3],did not affect
same,Dgat2 expression,[3],did not affect
same,Fabp1 mRNA expression,[3],significantly decreased
same,Fasn mRNA expression,[3],significantly decreased
same,G6pdx mRNA expression,[3],significantly decreased
same,Hmgcr expression,[3],no significant changes
same,LDL receptor (Lldr) expression,[3],no significant changes
same,Nr1h3 expression,[3],no significant changes
same,Pparg expression,[3],did not affect
same,Scd1 mRNA expression,[3],significantly decreased
same,Srebp1 expression,[3],did not affect
same,hormone-sensitive lipase (Hsl) mRNA expression,[3],no significant changes
same,Cd36 mRNA expression,[3]; p < 0.05,significantly downregulated
same,lipoprotein lipase (Lpl) mRNA level,[3]; p < 0.05,significant decrease
